Experiments:
[1] = system: murine GBM cell lines (GL261); assay: GBM (GL261) tumor bearing mice: tumor growth and survival; format: in vivo; conditions: FIG. 4
Source text: (§1) To test this hypothesis, the inventors crossed LysM^cre (Jackson Laboratory. 004781) and KDm6B^fl/fl (Jackson Laboratory, 029615) mice to generate LysM^creKDm6B^fl/fl mice. The inventors inoculated murine GBM cell lines (GL261) into the LysM^creKDm6B^fl/fl mice (FIG. 5). […] The pre-clinical data provide a strong rationale of testing KDM6B inhibitor in clinic in combination with immune checkpoint therapy.

myeloid cells = assay: Macrophage / myeloid cell phenotype in GBM tumor bearing mice; format: in vivo; conditions: compared with myeloid specific depletion of KDM6B (increasing type I and type II IFN responses and antigen presenting pathways)
Source text: as §1

SMILES: CCOC(=O)CCNc1cc(N2CCc3ccccc3CC2)nc(-c2ccccn2)n1 [GSK-J4]
- survival [1]: improved survival
- tumor growth [1]: attenuated tumor growth
- changes of macrophage phenotype (myeloid cells): could recapitulate the changes of macrophage phenotype

Reference: patent US12678445B2, “Methods for treating glioblastoma” (BOARD OF REGENTS, THE UNIVERSITY OF TEXAS SYSTEM, priority 2020, dated 2026)
